From PubChem BioAssay (NCI)
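Exposure lasted 48 hours, with cells grown in 96-well plates and compounds tested at five concentrations. Abbreviation: GI50, concentration required for 50% inhibition of growth. TGI is the concentration that stops growth completely.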 Where a SMILES comes first, the peptide text is derived from it. [ ]: non-standard residue; d: D form. The star is where a group is joined. ξ: configuration not given here. Propanoyl(3-(4-MeO-Ph)) = COc1ccc(CCC(=O)*)cc1; Thr(3ξ) = CC(O)[C@H](N)C(=O)O; dNMeL = CN[C@H](CC(C)C)C(=O)O; pGlu = O=C1CC[CH](C(=O)O)N1; ξLac = CC(O)C(=O)O

Key:
Assay in all cases: inhibition of tumour cell growth, NCI panel, 48 h
RPMI-8226 leukemia = tested on: RPMI-8226 leukemia
TK-10 renal = tested on: TK-10 renal
BT-549 breast = tested on: BT-549 breast
IGROV1 ovarian = tested on: IGROV1 ovarian
NCI-H226 lung = tested on: NCI-H226 lung
HS 578T breast = tested on: HS 578T breast
A549 NSCLC = tested on: A549 NSCLC
OVCAR-5 ovarian = tested on: OVCAR-5 ovarian
MCF7 breast = tested on: MCF7 breast
K-562 leukemia = tested on: K-562 leukemia

Row | Compound | TGI (RPMI-8226 leukemia) [µM] | TGI (TK-10 renal) [µM] | TGI (BT-549 breast) [µM] | TGI (IGROV1 ovarian) [µM] | TGI (NCI-H226 lung) [µM] | TGI (HS 578T breast) [µM] | TGI (A549 NSCLC) [µM] | TGI (OVCAR-5 ovarian) [µM] | TGI (MCF7 breast) [µM] | TGI (K-562 leukemia) [µM] | GI50 (RPMI-8226 leukemia) [µM] | GI50 (HS 578T breast) [µM]
1 | CCOc1cc2c(cc1O)CC[C@@H]1[C@@H]2CC[C@]2(C)C(OS(=O)OC3CC[C@@H]4[C@H]5CCc6cc(O)c(OCC)cc6[C@@H]5CC[C@@]34C)CC[C@@H]12 (some centres not stated) | 13.9 | > 100 | 13.6 | 25.8 | 14.6 | > 57.3 | 11.3 | > 57.8 | 7.01 | > 55.6 | – | –
2 | COc1ccc(N=N/C(=N/NC(=O)c2cc(Cl)ccc2C(=O)c2ccccc2)c2ccc(N(CCC#N)CCC#N)cc2C)cc1 | 44.4 | 75.1 | > 100 | 27.7 | 66.3 | > 100 | > 100 | 70 | > 100 | > 100 | – | –
3 | COc1ccc(-c2nnc(CCCCCCCCc3nnc(-c4ccc(OC)cc4)n3N)n2N)cc1 | > 100 | > 100 | > 100 | > 100 | > 100 | > 100 | > 100 | > 100 | > 100 | > 100 | – | –
4 | O=C(CCc1ccc(O)c(O)c1)NCCc1ccc(O)c(O)c1 | > 100 | > 100 | > 100 | > 100 | > 100 | > 100 | > 100 | > 100 | 45.4 | > 100 | – | –
5 | Cc1nc2c(Cl)cc(Cl)cc2c(Cl)c1CCCl | > 100 | > 100 | > 100 | > 100 | > 100 | > 100 | > 100 | > 100 | > 100 | > 100 | – | –
6 | CCOC(=O)Cn1nnc2cc(Nc3nc4ccccc4nc3C(=O)OCC)ccc21 | > 100 | 59 | > 100 | > 100 | > 100 | > 100 | > 100 | > 100 | > 100 | > 100 | – | –
7 | CCCCC1(N=[N+]=[N-])C(=O)C2C=CC=C3c4ccccc4N(C1=O)C32 (configuration not stated) | > 31.6 | > 31.6 | > 31.6 | > 31.6 | > 31.6 | 26 | > 31.6 | > 31.6 | 28.1 | > 31.6 | – | –
8 | COc1ccc(-c2nnc(-c3ccncc3)o2)cc1 | > 100 | > 100 | > 100 | > 100 | > 100 | > 100 | > 100 | > 100 | > 100 | > 100 | – | –
9 | CN(C)CCNC(=O)c1cccc2[nH]c(-c3ccncc3)nc12 | 21.5 | 16.9 | 34.8 | > 56.4 | > 50.5 | 29.6 | > 44.9 | 34.1 | > 30.8 | > 100 | – | –
10 | Cc1[nH]c(=O)nc2nc3ccc(Cl)cc3c(NC(C)(CO)CO)c12 | > 100 | > 100 | > 100 | > 100 | > 100 | > 100 | > 100 | > 100 | > 100 | > 100 | – | –
11 | CSC1(SC)N2Cc3ccccc3N=C2C1(c1ccccc1)c1ccccc1 | 97.1 | > 100 | > 92.6 | > 100 | > 100 | > 82.5 | > 100 | > 77.9 | > 87.9 | > 100 | – | –
12 | CN(C)CCCNc1cnc2cc3ccccc3cc2n1 | 82.2 | 78.2 | 58.9 | 31.8 | 40.6 | > 100 | > 100 | 81.9 | 44.8 | 70.2 | – | –
13 | COC(=O)[C@@H](NC(=O)[C@@H](CC(C)C)N(C)C(=O)[C@@H]1CCCN1C(=O)C(C)O)C(C)OC(=O)CCc1ccc(OC)cc1 (some centres not stated) (H-[ξLac]P[dNMeL][Thr(3ξ)](Propanoyl(3-(4-MeO-Ph)))-OMe) | > 100 | > 100 | > 100 | > 100 | > 100 | > 100 | > 100 | > 100 | > 100 | > 100 | – | –
14 | CNC(=O)c1ccccc1[S+]1c2cccc3cccc(c23)C(=O)N1C (configuration not stated) | > 100 | > 100 | > 100 | > 100 | > 100 | > 100 | > 100 | > 100 | > 100 | > 100 | – | –
15 | COc1cccc2c1-c1c(OC)cccc1SS2 | 59.2 | 51.1 | 86.5 | 41.6 | 42.7 | > 100 | 33.5 | 40.9 | > 100 | > 100 | – | –
16 | COC(=O)C(Cc1ccccc1)NC(=O)c1ccc(CNC(=S)NCc2cccc(CNC(=S)NCc3ccccc3)c2)cc1 (configuration not stated) | > 62.5 | > 62.5 | > 62.5 | > 62.5 | > 62.5 | > 62.5 | > 62.5 | > 62.5 | > 62.5 | > 62.5 | – | –
17 | CCCCCC(O)(CCCCC)CCCCCCCCC1=C(O)c2ccccc2C(=O)C1=O | 11.5 | > 75.5 | 39.6 | 26.4 | 36.4 | 54.5 | > 53.6 | 46.1 | 23.6 | 21.6 | – | –

Row | Compound | TGI (RPMI-8226 leukemia) [µM] | TGI (TK-10 renal) [µM] | TGI (BT-549 breast) [µM] | TGI (IGROV1 ovarian) [µM] | TGI (NCI-H226 lung) [µM] | TGI (HS 578T breast) [µM] | TGI (A549 NSCLC) [µM] | TGI (OVCAR-5 ovarian) [µM] | TGI (MCF7 breast) [µM] | TGI (K-562 leukemia) [µM] | GI50 (RPMI-8226 leukemia) [µM] | GI50 (HS 578T breast) [µM]
18 | C=CCCC(On1c(-c2ccc(Cl)cc2)csc1=S)c1ccccc1 (configuration not stated) | > 100 | > 100 | > 100 | > 100 | 81.8 | > 100 | > 100 | > 100 | > 100 | > 100 | – | –
19 | O=C(Cn1c(=O)oc2ccc(C(=O)c3ccccc3Cl)cc21)c1ccc([N+](=O)[O-])cc1 | 77.2 | > 100 | 75 | > 100 | > 100 | > 100 | > 100 | > 100 | 89.1 | 83 | – | –
20 | COc1ccc(N2C(N)=C(C#N)C(C#N)(C#N)C2c2cccc([N+](=O)[O-])c2)cc1 (configuration not stated) | 42.5 | 30.9 | 32.3 | 29.7 | 35.4 | 54.6 | 34.2 | 34.5 | 40.2 | 14.7 | – | –
21 | CC(NC(=O)C(Cc1cnc[nH]1)NC(=O)C1CCC(=O)N1)C(N)=O (stereo not drawn) ([pGlu]-His-Ala-NH2; configuration not given here) | > 100 | > 100 | > 100 | > 100 | > 100 | > 100 | > 100 | > 100 | > 100 | > 100 | – | –
22 | NC(=O)C[C@H](NC(=O)C1(NC(=O)[C@H](Cc2ccc(CP(=O)(O)O)cc2)NC(=O)C(=O)O)CCCCC1)C(=O)NCCCc1cccc2ccccc12 | > 10 | > 10 | > 10 | > 10 | > 10 | > 10 | > 10 | > 10 | > 10 | > 10 | – | –
23 | COc1cc2c(cc1OC(=O)c1cc3ccccc3[nH]1)N=C[C@@H]1CCCN1C2=O | 1.95 | 13.8 | 5.37 | > 39.6 | 5.97 | > 100 | 12 | 0.59 | 13 | 2.83 | – | –
24 | COc1ccc(NCc2cnc3nc(N)nc(N)c3c2C)cc1 | > 100 | > 100 | > 100 | > 100 | > 93.9 | > 100 | > 100 | > 100 | > 100 | > 100 | – | –
25 | N#CCOc1cccc(C2(N3CC=CCC3)CCCCC2)c1 | > 100 | > 100 | > 100 | > 100 | > 100 | > 100 | > 100 | > 100 | > 100 | > 100 | – | –
26 | S=c1nc2sc3c(c2c(Nc2ccc(Br)cc2)[nH]1)CCN(N1CCc2c(sc4nc(=S)[nH]c(Nc5ccc(Br)cc5)c24)C1)C3 | > 50 | > 50 | > 50 | > 50 | > 50 | > 50 | > 50 | > 50 | > 50 | > 50 | – | –
27 | CCOC(=O)C1C[C@H]2CO[C@H](c3ccccc3)N2C1=O (some centres not stated) | > 100 | > 100 | > 100 | > 100 | > 100 | > 100 | > 100 | > 100 | > 100 | > 100 | – | –
28 | NC(=O)c1ncn2c(=O)n(CCl)nnc12 | > 100 | > 100 | > 100 | > 100 | > 100 | > 100 | > 100 | > 100 | > 100 | > 100 | – | –
29 | CO[C@H]1C[C@H](n2cc(C)c(=O)[nH]c2=O)O[C@@H]1CO | > 100 | > 100 | > 100 | > 100 | > 100 | > 100 | > 100 | > 100 | > 100 | > 100 | – | –
30 | COc1nc2ccc(CNc3ccc(C(=O)O)cc3)cc2nc1OC | > 10 | > 10 | > 10 | > 10 | > 10 | > 10 | > 10 | > 10 | > 10 | > 10 | – | –
31 | COP(=O)(OC)c1ccc(NCc2cc(O)ccc2O)cc1 | 62.4 | 53.9 | 36.9 | > 67.1 | > 77.9 | > 63.8 | > 100 | > 60.1 | 99.3 | > 96.8 | – | –
32 | O=[N+]([O-])c1ccc2nc(/C=C(\O)c3ccccc3)c(/C=C(\O)c3ccccc3)nc2c1 | 61.7 | 63 | 62.1 | > 56.4 | > 100 | 48.6 | > 58.5 | > 100 | > 100 | > 100 | 5.21 | 6.83
33 | COc1ccc2oc(=Nc3ccc(F)cc3)c(C(N)=O)cc2c1 | > 100 | 58 | > 100 | > 100 | > 100 | > 100 | > 100 | > 100 | > 100 | > 100 | – | –
34 | COC(=O)c1c(O)ccc2c1c1c(n2Cc2ccccn2)C(=O)c2ccccc2C1=O | > 100 | > 100 | > 100 | > 100 | > 100 | > 100 | > 100 | > 100 | > 100 | > 100 | – | –
